Data on eleven molecules can be found in ChEMBL document CHEMBL1156210, “Discovery of tertiary sulfonamides as potent liver X receptor antagonists” (J Med Chem, 2010).

Molecules are shown by their SMILES. Active and inactive are the calls of the source. The rule behind the calls is not given here. A value given as a limit tells only on which side of the number the result lay.

In assay [1] the target is T1, Oxysterols receptor LXR-beta (Homo sapiens, UniProt P55055). The assay can be described thus: Displacement of [N-methyl-3H]T1317 from human biotinylated LXRbeta LBD after 3 hrs by LEAD seeker binding assay.
Assay [2] has as its target T2, Oxysterols receptor LXR-alpha (Homo sapiens, UniProt Q13133).
T2 sequence (Q13133 whole entry): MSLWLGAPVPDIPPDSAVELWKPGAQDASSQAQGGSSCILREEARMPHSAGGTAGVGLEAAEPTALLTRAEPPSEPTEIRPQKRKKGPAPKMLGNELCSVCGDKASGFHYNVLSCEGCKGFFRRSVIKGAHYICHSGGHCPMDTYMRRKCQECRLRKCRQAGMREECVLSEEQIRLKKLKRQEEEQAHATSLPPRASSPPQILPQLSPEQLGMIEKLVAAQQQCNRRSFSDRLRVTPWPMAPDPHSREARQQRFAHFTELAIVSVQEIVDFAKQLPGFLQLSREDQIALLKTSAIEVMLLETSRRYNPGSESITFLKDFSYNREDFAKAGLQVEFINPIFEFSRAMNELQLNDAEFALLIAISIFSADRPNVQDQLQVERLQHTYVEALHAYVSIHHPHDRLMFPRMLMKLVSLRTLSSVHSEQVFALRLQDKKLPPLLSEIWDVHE
The assay can be described thus: (§1) Agonist activity at LXRalpha ligand binding domain-mediated transcriptional activity in african green monkey CV1 cells co-transfected with Gal4-SRC1 by luciferase reporter assay. Format: cell-based, CV-1.

Assay [3] has as its target T3, Oxysterols receptor LXR-alpha (Homo sapiens) (UniProt Q13133).
T3 sequence (whole entry): T2 sequence (Q13133 whole entry)
The description is as §1. Format: cell-based. The settings on record: CV-1.

Assay [4] has as its system HepG2. The assay can be described thus: Inhibition of GW-3965-induced SREBP-1c expression in human HepG2 cells. Format: functional, cell-based.
The next assay has as its system THP-1. The assay can be described thus: Inhibition of ABCA1 expression in human THP1 cells. Type of assay: functional, cell-based.
The subject of assay [5] is HepG2. The assay can be described thus: Inhibition of SREBP-1c expression in human HepG2 cells. Type of assay: functional, cell-based.
Assay [6] deals with T1, Oxysterols receptor LXR-beta. The settings on record: CV-1.
Assay [7] deals with HepG2. Kind of assay: Inhibition of basal triglyceride level in human HepG2 cells.
For assay [8], the target named is T1, Oxysterols receptor LXR-beta. Kind of assay: Agonist activity at LXRbeta ligand binding domain-mediated transcriptional activity in african green monkey CV1 cells co-transfected with Gal4-SRC1 by luciferase reporter assay. Format: cell-based, CV-1. For orientation: A reporter such as luciferase makes a cellular process visible.

T1 sequence (P55055 whole entry, the tested form may be a part): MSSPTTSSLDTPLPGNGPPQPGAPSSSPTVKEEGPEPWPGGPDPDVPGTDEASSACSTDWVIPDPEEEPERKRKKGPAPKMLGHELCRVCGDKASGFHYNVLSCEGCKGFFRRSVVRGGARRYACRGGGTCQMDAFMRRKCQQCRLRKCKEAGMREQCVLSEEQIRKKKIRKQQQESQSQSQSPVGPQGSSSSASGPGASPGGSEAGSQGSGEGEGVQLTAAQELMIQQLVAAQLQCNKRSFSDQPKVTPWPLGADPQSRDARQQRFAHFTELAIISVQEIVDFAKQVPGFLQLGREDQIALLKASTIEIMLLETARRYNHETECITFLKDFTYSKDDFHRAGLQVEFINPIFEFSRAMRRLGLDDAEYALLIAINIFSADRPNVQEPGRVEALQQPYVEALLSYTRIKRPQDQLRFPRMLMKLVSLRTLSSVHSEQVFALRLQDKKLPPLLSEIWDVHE

In assay [1], `O=C(c1ccccc1)N(Cc1ccc(-c2ccccc2)cc1)Cc1ccc(F)cc1Cl` gave an IC50 above 10 µM.

Regarding `Fc1ccc(CN(Cc2ccccc2)Cc2ccc(-c3ccccc3)cc2)c(Cl)c1`, the 50% inhibitory concentration (IC50) in assay [1] was above 10 µM.

In assay [2], `Cc1cc(C)c(S(=O)(=O)N(Cc2ccc(-c3cccc(S(C)(=O)=O)c3)cc2)Cc2c(F)cccc2Cl)c(C)c1` showed an EC50 of 0.0794 µM.

In assay [2], `CS(=O)(=O)c1cccc(-c2ccc(CN(Cc3c(F)cccc3Cl)S(=O)(=O)c3ccccc3)cc2)c1` showed a concentration giving a half-maximal response (EC50) of 0.00631 µM.

In turn, `CS(=O)(=O)c1cccc(-c2ccc(CN(Cc3ccc(F)cc3Cl)S(=O)(=O)c3ccccc3)cc2)c1` showed an EC50 in assay [2] of 0.01 µM.

In turn, `Cc1ccccc1S(=O)(=O)N(Cc1ccc(-c2cccc(S(C)(=O)=O)c2)cc1)Cc1c(F)cccc1Cl` gave a half-maximal effective concentration (EC50) in [2] of 0.0126 µM.

`Cn1cnc(S(=O)(=O)N(Cc2ccc(-c3cccc(S(C)(=O)=O)c3)cc2)Cc2c(F)cccc2Cl)c1` showed an EC50 in [2] of 0.0794 µM.

Regarding `Cc1cc(C)c(S(=O)(=O)N(Cc2ccc(-c3cccc(S(C)(=O)=O)c3)cc2)Cc2ccc(F)cc2Cl)c(C)c1`, the concentration giving a half-maximal response (EC50) in assay [2] was 0.126 µM.

On to `Cc1cc(C)c(S(=O)(=O)N(Cc2ccc(-c3cccc(S(C)(=O)=O)c3)cc2)Cc2ccc(C(F)(F)F)o2)c(C)c1`, for which the values for the IC50 (in assay [1]; with THP-1; with HepG2 [5]) were 0.0316 µM, below 0.1 µM and below 0.1 µM, respectively. The pEC50 entry in [3] and in [6] was “inactive” throughout. Moreover, the Activity entry with HepG2 [4] was “Dose-dependent effect”. For the same molecule, the result in the assay on HepG2 [7] was Active.

In assay [1], `O=C(O)Cc1cccc(OCCCN(Cc2cccc(C(F)(F)F)c2Cl)CC(c2ccccc2)c2ccccc2)c1` gave an IC50 of 0.0199 µM. Besides, in assay [8], the EC50 stood at 0.1 µM.

Take `CS(=O)(=O)c1cccc(-c2ccc(CN(Cc3c(F)cccc3Cl)S(=O)(=O)C3CC3)cc2)c1`: the concentration for a half-maximal effect (EC50) in assay [2] was 0.1 µM.

By IC50 is commonly meant the concentration at which inhibition is half-maximal. In general, EC50 refers to the concentration giving half of the maximal effect.
